Test results from publication PMC11946789, “Two Amino Acid Substitutions Improve the Pharmacological Profile of the Snake Venom Peptide Mambalgin” (Toxins, 2025).
Entries after “also recorded” stand apart in the source; their conditions may differ. Bridges are numbered along the chain shown (N, C = ends). Where no end group is shown, it is not given here.

Molecular target: T1, homomeric rat ASIC1b (rASIC1b) (Rattus norvegicus, UniProt P55926)
T1 construct: expressed in transfected cells; host or cells: Xenopus laevis oocytes, mRNA microinjected
T1 sequence (P55926 1-559 isoform P55926-3): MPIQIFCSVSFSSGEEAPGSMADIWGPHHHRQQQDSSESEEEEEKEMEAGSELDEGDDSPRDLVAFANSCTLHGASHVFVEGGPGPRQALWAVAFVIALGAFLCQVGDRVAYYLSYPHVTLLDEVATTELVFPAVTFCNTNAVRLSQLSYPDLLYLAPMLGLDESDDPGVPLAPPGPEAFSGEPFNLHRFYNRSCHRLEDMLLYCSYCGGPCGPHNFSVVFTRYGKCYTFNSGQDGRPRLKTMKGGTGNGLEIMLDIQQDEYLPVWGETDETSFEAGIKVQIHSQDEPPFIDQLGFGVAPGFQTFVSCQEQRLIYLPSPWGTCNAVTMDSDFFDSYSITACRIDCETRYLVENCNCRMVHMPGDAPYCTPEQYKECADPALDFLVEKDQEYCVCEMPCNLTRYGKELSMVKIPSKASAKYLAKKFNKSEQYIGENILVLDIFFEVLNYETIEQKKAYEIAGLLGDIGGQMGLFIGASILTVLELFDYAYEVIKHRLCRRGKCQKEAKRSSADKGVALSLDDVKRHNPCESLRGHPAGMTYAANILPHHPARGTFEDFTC
Experiment: TEVC recordings, homomeric rASIC1b
Type: cell-based
Text: Figure 4 The inhibitory effect of Mamb-AL on other ASIC1-containing channels exceeds that of Mamb. (A,C) Representative current traces showing the effects of various concentrations of Mamb (left panels) and Mamb-AL (right panels) on homomeric rat ASIC1b (rASIC1b) (A) and heteromeric rat ASIC1a/3 (rASIC1a/3) channels (C). Currents were evoked by a pH 5.5 stimulus following a conditioning pH of 7.4, with peptides applied for 30 s prior to the pH stimulus. (B) Dose–response curves for the inhibitory effects of Mamb and Mamb-AL on rASIC1b. Each data point represents measurements from 5 to 7 cells. (D) Bar graph quantifying the inhibitory effects of Mamb and Mamb-AL on rASIC1a/3, shown as a percentage of the corresponding control currents (n = 5). Data are presented as mean ± SEM; * p< 0.05, unpaired t-test. […] Data are shown as mean ± SEM; ns indicates no significant difference vs. control (dotted horizontal line), paired t-test. […]
Whole-cell ASIC currents were measured using the two-electrode voltage clamp (TEVC) method with a GeneClamp 500 amplifier (Axon Instruments, Union City, NJ, USA). […]
Electrophysiological and behavioral data were analyzed using OriginPro 8.6.0 (OriginLab, Washington, DC, USA). […] Statistical significance between the Mamb and Mamb-AL groups was determined using an unpaired t-test. […]

“LKCYQHGKVVTCHRDAKFCYHNTGLPFRNLKLILQGCSSSCSETENNKCCSTDRCNK (disulfide 3-19, 12-37, 41-49, 50-55 (inferred)) [Mamb-AL]” was tested. Which “greater potency / inhibition of rASIC1b” value (compared with Mamb) did it give?
Its value is “five-fold; also recorded: five times greater potency”.

And the IC50 (pH stimulus 5.5, conditioning pH 7.4, peptide applied 30 s before stimulus, Xenopus laevis oocytes, mean ± SEM, 5 to 7 cells)?
The IC50 was 0.022 ± 0.001 µM.
